According to patent US10172357B2, “Fungicidal composition and method for controlling plant diseases” (ISHIHARA SANGYO KAISHA, LTD., priority 2015, dated 2019):

Tested on: Blumeria graminis
Assay: Test on preventive effect against wheat powdery mildew (seed treatment)
Assay type: in vivo, Blumeria graminis on wheat (cultivar: Norin-61-go)
Conditions: seed coating, first leaf, 7 days after inoculation; for Lesion area ratio (%): non-treated plot 90
Source text: 50 g of wheat seeds (cultivar: Norin-61-go), and predetermined amounts of an aqueous suspension containing pyriofenone 30% (WN) (tradename: PROPERTY FLOWABLE), an aqueous suspension containing fluazinam 50% (WN) (tradename: FROWNCIDE SC) and an aqueous suspension containing thiophanate-methyl 75% (WM) (tradename: TOPSIN M sol) so that the respective active ingredient amounts were as identified in Table 1 (g.a.i./100 kg seed), were put in a plastic bag, sufficiently stirred and air-dried to obtain seeds coated with a fungicidal composition. Ten seeds coated with a fungicidal composition were sown in a plastic pot (diameter: 7.5 cm, height: 6.8 cm, cylindrical black plastic pot, soil: culture soil). Wheat plants were cultivated in a greenhouse and at the 1-leaf stage, conidia of Blumeria graminis were dusted and inoculated, and the wheat plants were maintained in a constant temperature chamber at 20° C. The same operation was conducted with respect to seeds coated with the respective active ingredients individually, for comparison, as shown in Table 1. 7 days after the inoculation, the lesion area ratio on the first leaf was examined, and the control value was calculated based on the following formula. Further, theoretical values (control values) by use in combination were also calculated in accordance with the following Colby's formula. Control value=(1−a/b)×100 • a: lesion area ratio in treated plot • b: lesion area ratio in non-treated plot Colby's formula=(X+Y+Z)−(XY+YZ+ZX)/100+XYZ/10,000 • X: control value of component (a) used singly • Y: control value of component (b) used singly • Z: control value of component (c) used singly

[1] = fluazinam 3.3 g.a.i./100 kg seed
[2] = fluazinam 10 g.a.i./100 kg seed
[3] = pyriofenone 30 g.a.i./100 kg seed
[4] = thiophanate-methyl 23.3 g.a.i./100 kg seed
[5] = thiophanate-methyl 35 g.a.i./100 kg seed
[6] = thiophanate-methyl 70 g.a.i./100 kg seed

Which results are given for `O=[N+]([O-])c1cc(C(F)(F)F)c(Cl)c([N+](=O)[O-])c1Nc1ncc(C(F)(F)F)cc1Cl` [Fluazinam, N-(3-chloro-5-trifluoromethyl-2-pyridyl)-2,6-dinitro-3-chloro-4-trifluoromethylaniline]?
Control value [1]: 0; Lesion area ratio (%) [1]: 90%; Control value (fluazinam 5 g.a.i./100 kg seed): 0; Lesion area ratio (%) (fluazinam 5 g.a.i./100 kg seed): 90%; Control value [2]: 0; Lesion area ratio (%) [2]: 90%

Which results are given for `COc1cc(C)c(C(=O)c2c(OC)ncc(Cl)c2C)c(OC)c1OC` [Pyriofenone, 3-(2,3,4-trimethoxy-6-methylbenzoyl)-5-chloro-2-methoxy-4-methylpyridine]?
Control value [3]: 44; Lesion area ratio (%) [3]: 50%

What does the source list for `COC(=O)NC(=S)Nc1ccccc1NC(=S)NC(=O)OC` [Thiophanate-methyl, 1,2-di-(3-methoxycarbonyl-2-thioureido)benzene]?
Control value [4]: 0; Lesion area ratio (%) [4]: 90%; Control value [5]: 33; Lesion area ratio (%) [5]: 60%; Control value [6]: 44; Lesion area ratio (%) [6]: 50%
